This note sets out measurements from patent US20100221228A1, “y134.5 Deficient HSV and the MAPK Pathway” (The University of Chicago, priority 2006, published 2010).

Structures are written as SMILES.

In assay [1] the test system is HT1080 cells infected with R3616. The experiment in a line: MEK inhibitor study: immunoblotting of viral proteins and phospho-PKR. It counts as cell-based, human. Here is the method: (§1) Inhibitor studies—For experiments employing the known MEK inhibitor, PD98059, HT1080 cells were starved over night in serum-free medium and then exposed to 40 μM of PD98059 (EMD Biosciences, San Diego, Calif.), or DMSO (1:1000 dilution) 6 hours prior to, and during, infection. At 12 hours post-infection, whole cell lysates were created as described above for immunoblotting.
To determine if MEK mediates the observed mutant Ras-dependent suppression of PKR activation and resultant accumulation of viral proteins in HT1080 cells infected with mutant virus R3616, the relative expressions of representative a (ICP27), β (U142) and γ2 (glycoprotein C) viral proteins in cells treated with a specific chemical inhibitor of MEK-1 (PD98059) were compared. Replicate cultures of HT1080 cells were serum-starved overnight prior to exposure to equal volumes of DMSO or PD98059 (40 μM) for 6 hours prior to infection with R3616 mutant virus (10 PFU/cell). DMSO or drug treatment was then continued until the cells were harvested at 12 hours post-infection. The cells were then lysed and the lysates were subjected to electrophoresis in denaturing polyacrylamide gels, followed by transferring to PVDF membranes and reacting with antibody to ICP27, UL42, or gC. […] To test whether the decrease in the accumulation of gC correlated with activation of PKR, the electrophoretically separated lysates were also probed with antibody to the auto-phosphorylated form of PKR (P-Thr446). The presence of PD98059 prior to, and during, infection with R3616 […] the amount of activated PKR in HT1080 cells (FIG. 6, panel B).
(A western blot detects proteins with antibodies after separation by electrophoresis.)

Assay [2] shares this test system. Description: MEK inhibitor study: R3616 yield in HT1080 cells with PD98059 or DMSO. It counts as cell-based, human. Here is the method:
as §1
Finally, to determine if MEK inhibition affects viral replication, DMSO or PD98059 (40 μM) was added to replicate cultures of HT1080 cells 6 hours prior to, and during, infection with R3616 (1 PFU/cell).

[3] abbreviates: PD98059 40 μM, R3616 10 PFU/cell, 12 hours post-infection.

As for `COc1cccc(-c2cc(=O)c3ccccc3o2)c1N` [PD98059], the “amount of activated PKR (P-Thr446)” value in assay [1] (PD98059 40 μM prior to and during infection with R3616) was “increased”. Besides, in assay [1] (setting [3]), the “accumulation of ICP27 and UL42 proteins” value is “slight effect”; the “amounts of gC that accumulated” value was “very dramatic decrease”. Moreover, the “yield of R3616 lower than in the presence of DMSO” value in assay [2] (PD98059 40 μM) was “approximately 15 fold”. Besides, the “yield of R3616 mutant virus” value in assay [2] (in the presence of PD98059 40 μM, 6 hours prior to and during infection, 1 PFU/cell, 36 hours) is recorded as 1.67×10^5 PFU/ml.
